≈ marks a conversion by molar mass, not a printed value.
Legend:
[1] = system: Collagenase Type IV from Clostridium histolyticum; assay: Anti collagenase activity (EnzChek DQ gelatin fluorescence assay); format: biochemical
From the text: Collagenase is one of the matrix metalloprotease, which digest collagen and other components of the extra cellular matrix (ECM). The ECM serves as a scaffold to stabilize the skin structure, and also helps in proliferation and metabolic functions of the skin cells. Loss of collagen leads to wrinkles and sagging of skin. The principle of the assay of collagenase inhibition is based on the fact that the substrate DQ™ gelatine is conjugated to fluorecein—a fluorescent compound. In DQ™ gelatine, fluorescence is quenched. DQ™ gelatine is efficiently digested by collagenases to yield a fluorescent compound which can be measured. The increase in fluorescence is proportional to enzyme activity. In the presence of an anti collagenase compound the amount of fluorescence will be decreased for a fixed concentration of enzyme and substrate.
• Equipment-BMG FLUOstar Optima (fluorescent Microplate reader) • Reagents: Phosphate buffer (pH 7.4) • Collagenase Enzyme assay kit (Enzchek® collagenase, gelatinase assay kit, Invitrogen, USA) • Microtitre plates—96 well microtitre plates (black)—Corning, USA
The assay was performed in a 96 well black microtitre plate. […] 100 μl of the Collagenase enzyme solution (final concentration-0.4 U/ml) was added and the fluorescence intensity was measured at Em: 485 nm and Ex: 520 nm after 30 minutes. Enzyme activity of control (buffer) was recorded. […]

[2] = biological target: T1, Elastase enzyme from pig pancreas (Sus scrofa, UniProt P00772); assay: Anti elastase activity (EnzChek DQ elastin fluorescence assay); format: biochemical
T1 construct: purchased; host or cells: pig pancreas
T1 sequence (P00772 27-266): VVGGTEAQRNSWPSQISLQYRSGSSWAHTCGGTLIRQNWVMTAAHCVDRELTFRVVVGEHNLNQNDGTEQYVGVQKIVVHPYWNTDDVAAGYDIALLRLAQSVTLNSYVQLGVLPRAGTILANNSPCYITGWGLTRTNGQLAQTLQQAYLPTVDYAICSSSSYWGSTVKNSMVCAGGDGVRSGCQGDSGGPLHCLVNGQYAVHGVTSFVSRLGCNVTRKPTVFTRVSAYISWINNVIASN
From the text: Elastase is one of the […], which digest elastin and other components of the extra cellular matrix and is important both for normal skin development. If this enzyme is not regulated by inhibitor proteins results in wrinkling of skin, premature ageing and carcinogenesis. The Anti-Elastase assay by Enz Chek elastase assay kit determines the elastase inhibitory activity of the products. The assays were done using the EnzChek elastase assay kit. The substrate is DQ elastin soluble bovine neck ligament. DQ elastin is labelled with BODIPY FL dye. The non-fluorescent substrate can be digested by elastase to yield highly fluorescent fragments and in the presence of inhibitor, the fluorescence intensity is quenched. The fluorescence intensity was measured in a microplate reader ([…].)
The assay was performed in a 96 well black microtitre plate. […] 100 μl of the Elastase enzyme solution (final concentration-0.1 U/ml) was added and the fluorescence intensity was measured at Em: 485 nm and Ex: 520 nm after 30 minutes. Enzyme activity of control (buffer) was recorded.
[formula] • B—Fluorescence in the presence of enzyme • BC—Fluorescence in the absence of enzyme activity • T—Fluorescence of enzyme activity in the presence of inhibitor • C—Fluorescence of the inhibitor alone Result

Human dermal fibroblasts [3] = assay: Proliferation of fibroblasts (SRB assay); format: cell-based; conditions: concentration of 12.5% (so in the source), 72 hours
Procedure: Human dermal fribroblasts were seeded at a density of 5×10^3 cells/well in DMEM 10% FBS and antibiotics in 96 well plate and allowed to form a monolayer in a humidified incubator at 37° C. and 5% CO2 atmosphere for 24 hours. Cells were treated with different concentration of the extract for 72 hours to assess the cytotoxicity. The viability of fibroblasts were determined by SRB assay (Nature protocols, 2006, 1, 3, 2112-16). Cells in DMEM with 0.1% DMSO was used as […] while media without cells were used as negative control

collagen in fibroblasts = assay: Collagen production / collagen staining in fibroblasts; format: cell-based, human
[4] = system: TGF-β secretion by fibroblasts; assay: TGF-β concentration in fibroblast culture supernatant; format: cell-based, human
[5] = system: Human keratinocytes (HaCAT); assay: Protection against UVB induced apoptosis, DNA damage and death (annexin-FITC/PI flow cytometry); format: cell-based; conditions: UVB exposed HaCAT
Procedure: Cells: Human keratinocytes (HaCAT)—cells were maintained as a monolayer culture in Dulbeccos modified minimal essential medium (DMEM) Life technologies, CA, USA) supplemented with 10% (v/v) heat-inactivated foetal bovine serum (FBS; GIBCO/Invitrogen, Carlsbad, Calif.), 100 units/mL penicillin and 100 μg/mL streptomycin (Life technologies) at 37° C. in a humidified 5% CO2 incubator.
Reagents: Dulbeccos modified minimal essential medium (DMEM), Fetal bovine serum (FBS), Annexin-FITC, Propidium Iodide-Apoptosis detection kit, Biovision, USA.
Instrument: Flow Cytometry (BD-FACS-Celesta).
Cells (3×10^5) were pre-treated with different concentrations of test sample for one hour and exposed to UVB. Cells were exposed to UVB rays for 10 min and incubated for 16 hours in DMEM with 2% serum. Cells were labelled with annexin-FITC and propidium iodide […] for 10 minutes in dark and analyzed using flow cytometer (BD FACS-Celesta).

[6] = system: Human keratinocytes (HaCAT); assay: ROS scavenging in keratinocytes, UV induced oxidative stress (DCFH-DA); format: cell-based; conditions: 6.25 μg/ml
Procedure: (§1) Cells: Human keratinocytes (HaCAT)—cells were maintained in fibroblast media (Gibco) at 37° C. in a humidified 5% CO2 incubator.
Reagents: Keratinocyte media (Gibco) DCFH-DA Instrument: FluoStar Optima microplate reader.
(§2) Reactive oxygen species include a number of molecules that damage DNA and RNA and oxidize proteins and lipids (lipid peroxydation). These reactive molecules contain an oxygen atom/molecule and include H2O2 (hydrogen peroxide), NO (nitric oxide), O2^− ([…]), peroxynitrite (ONOO^−), hydrochlorous acid (HOCl), and hydroxyl radical (OH). 5-(and 6)-chloromethyl-20, 70-dichlorohydrofluorescein diacetate (CM-H2DCFDA) freely permeates the plasma membrane and is hydrolyzed in the cytosol to form the DCFH carboxylate anion. Oxidation results in the formation of fluorescent DCF, which is maximally excited at 495 nm and emits at 520 nm.
(§3) Keratinocytes were seeded at 50,000 cells per well in 96 well black plates and allowed to grow as a monolayer for 24 hours. Cells were pre-treated with different concentration of Oleanoyl-KVK for one hour. The plate was exposed to UVA radiation for 1 hour. Freshly prepared DCFH-DA reagent was added to all the wells (2 ug/well). The plate was incubated at 37° C. for 30 minutes. Fluorescence was recorded at 485:520, Ex: Em wavelength in FluoStar Optima microplate reader.

[7] = system: Human keratinocytes (HaCAT); assay: ROS scavenging in keratinocytes, heavy metal induced oxidative stress; format: cell-based; conditions: concentration of 12.5% (so in the source)
Procedure: as §1, §2
as §3, with “The plate was exposed to UVA radiation for 1 hour.” left out

Human dermal fibroblasts [8] = assay: Gene expression analysis in dermal fibroblasts (quantitative RT-PCR); format: cell-based; conditions: 6.25 μg/ml, 24 hours
Procedure: (§4) Human dermal fibroblasts and keratinocytes were cultured in 6 well microtiter plates in the presence of 6.25 μg/ml oleanoyl KVK for 24 hours. Untreated cells were used as control. At the end of incubation time, the cells were lysed and RNA was extracted. […] Extracted RNA was treated with DNAse I to remove any contaminating DNA and again extracted using phenol: chloroform: isoamyl alcohol extraction ([…]). Quality of RNA was determined by checking the absorbance at 260/280 nm using a Nanodrop (Thermo). 2 μg of total RNA was taken for cDNA synthesis using Super Script III First-Strand Synthesis System (Life Technologies). Quantitative RT-PCR analysis was performed to determine the expression of brown fat specific genes in Roche Light cycler 96 using SYBR Green master mix (Thermo Scientific). β actin was used as a house keeping gene. The relative RNA abundance of the genes was normalized to the housekeeping β actin gene and expressed as delta delta CT (equivalent to fold change transformed by Log2).

keratinocytes = assay: Gene expression analysis in keratinocytes (quantitative RT-PCR); format: cell-based, human; conditions: 6.25 μg/ml, 24 hours
Procedure: as §4

[9] = system: keratinocytes exposed to oxidative stress; assay: Gene expression in keratinocytes exposed to oxidative stress (quantitative RT-PCR); format: cell-based, human; conditions: cells exposed to oxidative stress
Procedure: as §4

[10] = system: TNF-α secretion by THP-1 human monocytes; assay: Anti inflammatory activity: LPS induced TNF-α secretion in THP-1 cells (ELISA); format: cell-based; conditions: for % Inhibition (TNF-α): LPS stimulated THP-1, 24 hour
Procedure: Anti inflammatory activity was examined using human monocyte/macrophage cell line THP-1. Monocytes respond to lipo-polysaccharides (LPS) by secreting pro-inflammatory cytokines. Tumour necrosis factor (TNF-α) is one of the principle cytokine which triggers a cascade of inflammatory reactions. The concentration of TNF-α was measured using an Enzyme linked Immunosorbent assay (ELISA). Reduction in TNF-α concentration indicates an anti inflammatory activity of the compound.
Cells: THP1-human monocytes purchased from American Type Culture Collection (ATCC, Manassas, Va.) and maintained as a monolayer culture in Rosewell park memorial institute Medium (RPMI Life technologies, CA, USA) supplemented with 10% (v/v) heat-inactivated foetal bovine serum (FBS; GIBCO/Invitrogen, Carlsbad, Calif.), 100 units/mL penicillin and 100 μg/mL streptomycin (Life technologies) at 37° C. in a humidified 5% CO2 incubator.
ELISA kit: Human TNF ELISA kit, Krishgen Biosciences, USA
1×10^5 THP-1 cells were stimulated with 100 ng with lipopolysacharide (LPS, 0.1 μg/mL) to induce TNF-α secretion. Cells were pre treated with different concentrations of oleanoyl KVK before LPS treatment. The cell supernatants were collected 24 hour after treatment and secreted TNF-α as estimated by cytokine ELISA as described by the manufacturer. Un-stimulated cells were used as negative control. The limit of detection was <1 pg/mL.

THP-1 cells = assay: Cell viability of THP-1 cells in the anti inflammatory assay; format: cell-based, human

In the case of `CC(C)[C@H](NC(=O)[C@H](CCCCN)NC(=O)[C@]12CCC(C)(C)C[C@H]1C1=CC[C@@H]3[C@@]4(C)CC[C@H](O)C(C)(C)[C@@H]4CC[C@@]3(C)[C@]1(C)CC2)C(=O)N[C@@H](CCCCN)C(=O)O` [Oleanoyl-KVK, Lysine-Valine-Lysine (KVK) conjugated to Oleanolic acid], the “inhibition of collagenase enzyme activity” value ([1]; 250 μg/ml) is reported as 100%, the “IC50 anti collagenase activity” value ([1]; DQ gelatin substrate, 30 minutes) is reported as 48.8 mg/L and the inhibition at 250 µg/mL ([2]; 250 μg/ml) is reported as 98%. The IC50 ([2]; DQ elastin substrate, 30 minutes, read-out: IC50 anti elastase activity (printed: anti collagenase activity) (converted)) was 77 µM, the “increase in proliferation of fibroblasts” value (Human dermal fibroblasts [3]) was 42.2% and the “increase in collagen staining in fibroblasts” value (collagen in fibroblasts) was 22.8%. For the same compound, the “TGF-β secretion by fibroblasts” value [4] was “dose dependent increase”, the “percent protection against UV induced DNA damage and death” value ([5]; 12.5 μg/ml) was 47.9% and the “reduction in late apoptosis” value [5] was “concentration dependent reduction in late apoptosis”. The “increase in live cells” value ([5]; 12.5 μg/ml) was “highest increase in live cells”, the “reduction in early apoptosis” value ([5]; maximum at 12.5 μg/ml) was “concentration dependent reduction in early apoptosis” and the “ROS scavenging activity, UV induced stress” value [6] was 17.1%. The “ROS scavenging, induced by heavy metals” value [7] was 20.4%, the “expression level of TGF-β” value (Human dermal fibroblasts [8]) was “increased” and the “expression level of collagen” value (Human dermal fibroblasts [8]) was “increased”. For the same compound, the “expression level of hyaluronan synthase” value (Human dermal fibroblasts [8]) was “increased”, the “gene expression in keratinocytes (FIG. 10: collagen, Elastin, TGF-β, hyaluronan synthase, epidermal growth factor)” value (keratinocytes) was “increased” and the “expression level of matrix metalloprotease 9” value [9] was “down regulated”. For the same compound, the “expression level of tumor necrosis factor α” value [9] was “down regulated”, the “% Inhibition (TNF-α)” value ([10]; 1.56 μg/ml) was 12.14% and the “% Inhibition (TNF-α)” value ([10]; 3.12 μg/ml) was 12.53%. The “% Inhibition (TNF-α)” value ([10]; 6.25 μg/ml) was 31.01%, the “% Inhibition (TNF-α)” value ([10]; 12.5 μg/ml) was 71.03% and the “IC50 anti inflammatory activity” value ([10]; LPS stimulated THP-1, TNF-α ELISA) was 9.09 mg/L (≈ 11.2 µM). For the same compound, the Cell viability (THP-1 cells; 1.56 μg/ml) was 100%, the Cell viability (THP-1 cells; 3.12 μg/ml) was 100% and the Cell viability (THP-1 cells; 6.25 μg/ml) was 100%. It also gave a Cell viability (THP-1 cells; 12.5 μg/ml) of 100%.
